Laboratory results taken from publication PMC10889512, “Pyrimidine Schiff Bases: Synthesis, Structural Characterization and Recent Studies on Biological Activities” (International Journal of Molecular Sciences, 2024).

What was measured:
[1] = tested on: AGS; assay: Microscopic observations, Hoechst 33342 stain, AGS; format: cell-based, human; details: at IC50, 24, 48 and 72 h
Description: (§1) In order to obtain information about cells and nuclei morphology, fluorescence microscopy was used. Briefly, after the incubation of A172 and AGS with compound 4b (at three time periods, namely 24, 48, and 72 h) cells were stained with Hoechst 33342 dye, which binds to DNA. Phase-contrast observations were also performed. […] Also, the cell membrane should be intact with a visible halo around the cells. In necrotic cells, the nuclei edges tend to be less clearly defined, and Hoechst 33342 results in a decreased fluorescence signal. This effect can be seen in a1,2 (A172) and b1,2 (AGS). […] To visualize morphological changes which occurred in the treated cells, microscopic observations were conducted using Hoechst 33342 stain. It is a blue fluorescent stain which allows observations of nuclei in eukaryotic cells. Also observations in bright fields were performed. Cells were stained according to the manufacturer’s protocol. Briefly, cells were plated in 12-well plates at a density of 1 × 10^5 cells/well and were incubated for 24 h at 37 °C, 5% CO2 in a humidified atmosphere. Next, cells were treated with 4b at an IC50 and further incubated for 24, 48, and 72 h. For microscopic observations cells were collected, washed with PBS and stained for 15 min with 1 µg/mL Hoechst 33342 dye. […]

[2] = tested on: A172; assay: Microscopic observations, Hoechst 33342 stain, A172; format: cell-based, human; details: A172, at IC50, 24, 48 and 72 h
Description: as §1

[3] = tested on: E. coli 25922; assay: Antimicrobial activity assay, microdilution; format: cell-based, Escherichia coli; details: concentration range from 0.5 µg/mL to 256 µg/mL
Description: (§2) In vitro antimicrobial and antifungal activity was screened using microdilution and modified Richard’s medium. The assay was performed for compounds 4a, 4b, 4c, and 4d with seven reference microbial strains from ATTC (E. coli 25922, S. aureus 43300, K. pneumoniae 700603, A. baumannii 19606, P. aeruginosa 27853, E. faecalis 29212, and C. albicans 10231).
(§3) Seven reference strains from the ATCC collection (Escherichia coli 25922, Staphylococcus aureus 43300, Klebsiella pneumoniae 13883, Acinetobacter baumannii 19606, Pseudomonas aeruginosa 27853, Enterococcus faecalis 29212, and Candida albicans 10231) were used. The assay was performed according to a modified version of Richard et al.’s protocol and ISO standards 20776-1:2019 and 16256:2021 [78, 79]. Microdilution with spectrophotometric measurement was used to calculate MIC50 (minimal inhibitory concentration which decreased the microorganisms’ viability to 50%) values. Briefly, compounds were prepared 100× concentrated in DMSO, and during the whole experiment, they were diluted to 1× with TSB. Serial dilutions of tested compounds were made directly on plates at a concentration range of 0.5 to 256 µg/mL. Microorganisms were incubated for 24 h at 37 °C (bacteria) or 25 °C (yeast) on Petri dishes with TSA. The bacteria/yeast suspensions were prepared at a density 5 × 10^5 CFU/mL (for bacteria) or 0.5–2.5 × 10^5 CFU/mL (for yeast) with TSB. Also, appropriate controls were contained in the experiment: the positive control consisted of a specific strain in TSB, and the negative control was TSB alone. To ensure that used strains were not modified and were still responding to antibacterial/antifungal compounds established by EUCAST, additional tests were conducted with levofloxacin, gentamicin, and amphotericin B. Microplates were incubated on a shaker for 24 h at 37 ± 1 °C or 25 ± 1 °C for the bacteria and yeast strains, respectively. After the incubation, spectrophotometric measurement was performed at 580 nm. MIC50 was calculated by comparing the results obtained for experimental sets with positive controls. Next, 50 µL aliquots of 1% (m/v) TTC solution were added to each well. The plates were incubated on the shaker for 24 h at 37/25 °C. In living microbial cells, colourless TTC is converted into red formazan crystals, which allows for visual observation and MBC/MFC (minimal bactericidal/fungicidal concentration) value assessment.

[4] = tested on: P. aeruginosa 27853; assay: Antimicrobial activity assay, microdilution; format: cell-based, Pseudomonas aeruginosa; details: concentration range from 0.5 µg/mL to 256 µg/mL
Description: as §2, §3

Cc1nc(-c2ccccc2)nc(Nc2ccc(F)cc2)c1C=Nc1cccc(Cl)c1 [compound 4b, 5-{[(3-chlorophenyl)imino]methyl}-N-(4-fluorophenyl)-6-methyl-2-phenylpyrimidin-4-amine]
cell and nuclei morphology [1]: leads to necrosis | cell and nuclei morphology [2]: leads to necrosis | MIC and MBC/MFC activity [3]: Neither MIC nor MBC/MFC activity was observed | MIC and MBC/MFC activity [4]: Neither MIC nor MBC/MFC activity was observed
